Measured values: ChEMBL document CHEMBL1146872, “Synthesis, biochemical evaluation and rationalisation of the inhibitory activity of a series of 4-hydroxyphenyl ketones as potential inhibitors of 17beta-hydroxysteroid dehydrogenase type 3 (17beta-HSD3)” (Bioorg Med Chem Lett, 2006)

Legend:
[1] = molecular target: 17beta-HSD3 (Rattus norvegicus); assay: Inhibition of 17beta-HSD3
[2] = test system: 17beta-HSD3 (Rattus norvegicus); assay: Inhibition of 17beta-HSD3 at 100 uM

CCCCCCC(=O)c1ccc(O)cc1
IC50 [1]: 7.84 µM | inhibition [2]: 80.3%

CCCCCC(=O)c1ccc(O)cc1
IC50 [1]: 18 µM | inhibition [2]: 76.4%

CCCCCCCCCCCC(=O)c1ccc(O)cc1
IC50 [1]: 7.55 µM | inhibition [2]: 78.9%

CCCCCCCCCC(=O)c1ccc(O)cc1
IC50 [1]: 4.97 µM | inhibition [2]: 81.4%

CCCCCCCC(=O)c1ccc(O)cc1
IC50 [1]: 6.52 µM | inhibition [2]: 82.6%
